Earlier results as cited in paper PMC4585962, “A peptide factor secreted by Staphylococcus pseudintermedius exhibits properties of both bacteriocins and virulence factors” (Scientific Reports, 2015).

Tests used:
[1] = system: proteases; settings: cited from earlier work
Method: (§1) BacSp222 remains active upon even prolonged incubation at elevated temperature and is exceptionally resistant to proteases in vitro. The former feature is quite common for bacteriocins, which, in combination with the virtual lack of cytotoxicity, contributes to common and successful application of bacteriocins in the food industry as preservatives, either in the form of additives or as coating agents for packaging materials. […] Resistan ...

[2] = system: Galleria mellonella larvae; settings: degradation or inactivation by host agents; cited from earlier work
Method: as §1

[3] = system: mammalian cells; settings: cited from earlier work
Text: In addition to the evident bactericidal activity of BacSp222, the most intriguing findings are its cytotoxic and modulatory effects on mammalian cells. Generally, peptide bacteriocins are considered to be noncytotoxic. However, the first known bacterial toxin active against eukaryotic and prokaryotic cells was a cytolysin produced by Enterococcus faecalis.

aureocin A53
resistance to proteases [1]: Resistance to proteases

epidermicin NI01
time to loss of bacteriocin activity after administration [2]: lost within less than an hour

nisin: low molecular weight bacteriocin produced by lactic acid bacteria (ITSISLCTPGCKTGALMGCNMKTATCHCSIHVSK; not fully specified; Lantibiotic nisin-A; UniProt P13068 24-57, looked up)
concentrations with adverse effects on mammalian cells [3]: tens to hundreds

bovicin HC5
concentrations with adverse effects on mammalian cells [3]: tens to hundreds
